Results published in US8912230B2, “Method for treating cell degeneration using at least one molecule capable of inhibiting adhesion molecule expression and vascular endothelium actin fibre polymerization” (Aisa Therapeutics, priority 2004, dated 2014).

Experiments:
[1] = system: rats; settings: rat, in vivo; cited from earlier work
[2] = system: C57/BL6 mice; assay: Preliminary in vivo toxicity study, blood cell count (Cell Dyn 3500/3700); parameters: species or system mouse
Procedure: FIGS. 11-25 depict the in vivo toxicity study for the natural and synthetic forms (respectively “NAT” and “SYN”) of geranyl acetate—a molecule called “AISA 5201” and selected for its representativeness of the AISA class—in a mouse model, for blood cell count parameters, at concentrations of 5, 10, 25, and 50 μg/mouse which correspond to non-toxic in vitro concentrations, allowing the desired biological effect to be observed, i.e. the inhibition of endothelial adhesion and endothelial actin polymerisation.
Two methods were used, one with the synthetic form named herein “SYN” (SIGMA catalogue number 173495), and the other with the natural unfiltered form (derived from geranium essential oils treated by HPLC) named herein “NAT”, of said molecule.
On the basis of the in vitro toxicity experiments, the “SYN” and “NAT” molecules were first tested on C57/BL6 mice at concentrations of 10, 25, and 50 μg/mouse, as well as on a control batch which was injected with PBS, either via the IP (intraperitoneal) or retro-orbital (IV) routes. Each batch consisted of 4 animals. A total of 16 animals was used.
Following the experiment, a blood cell count was performed using the Cell Dyn Systems 3500/3700 machine from Abbott Laboratories. This test was carried out to reveal any possible functional alterations. […]

Row | Compound | LD50 [1] | most appropriate concentration (WBC, NEU, LYM, MONO and PLT values closest to control) ([2]; first experiment, 10, 25, 50 μg/mouse tested) [μg/mouse] | blood cell count ([2]; mouse, in vivo)
1 | CC(=O)OC/C=C(\C)CCC=C(C)C [AISA 5201, (E)-3,7-dimethyl-2,6-octadienyl acetate] | 6,330 mg/kg |  | 
2 | CC(=O)OC/C=C(\C)CCC=C(C)C [NAT, geranyl acetate] |  | 50 | remaining within the values of the standard range
